Data on one molecule can be found in patent US4690935A, “Inhibition of tumor growth and metastasis with calcium channel blocker compounds” (Wayne State University, priority 1983, dated 1987).

Experiment [1] concerns B16a Tumor Cells. Put plainly: "Spontaneous" lung metastasis from an in vivo subcutaneous implant of B16a tumor cells. More on the design: species or system mouse. The note with it: mice; for % of Control (mean number of pulmonary metastases): oral once daily, 27 days, x ± SEM, N = 10, control = 100%; for reduction of spontaneous metastasis (in words): chronic oral administration. The source says: B16 amelanotic melanoma (B16a) and Walker 256 L-Pam carcinosarcoma were obtained from the Division of Cancer Treatment, Animal and Human Tumor Bank, Mason Research Institute, Worcester, Mass. Tumors were passaged four times after receipt in syngeneic C57BL/6J male mice (B16a) or allogenic Sprague Dawley rats (Walker 256 L-Pam). Passaging involved subcutaneous implantations of tumor pices (diced to approximately 2×2 MM) into the right auxiliary region using a 18 gauge needle. Mice weighing approximately 20 grams (4 to 5 weeks old) were used to passage the B16a cell line and female rats were used to passage the Walker 256 L-Pam cell line. Animals were housed under identical conditions of temperature, feeding, photoperiod, etc. The transplanted tumors were allowed to grow for approximately 14 days following implantation.
The B16a tumor cells, obtained by the previously described procedure of tumor dispersion and tumor cell elutriation were used to test the antimetastatic effect of BAY e 9736.
The effect of chronic oral administration of BAY e 9736 on spontaneous lung metastasis from a primary subcutaneous B16a tumor was also determined. A 16 mg portion of BAY e 9736 was dissolved in 1 ml of PEG-400 and diluted 1:8, 1:32, 1:80, and 1:800. Syngeneic C56BL/6J mice were injected subcutaneously with 1×10^5 B16a tumor cells in 0.1 ml prepared as previously described. Starting one day post tumor injection, the mice were administered BAY e 9736 orally once a day for 27 days with 0.1 ml of the diluted BAY e 9736. The control and treated mice were housed under identical conditions of temperature, feeding and photoperiod, etc. The mice were sacrificed 28 days after the injection of tumor cells and the lungs were removed in Bouin's solution and visible bilateral metastasis counted.

The test system of experiment [2] is B16a Tumor Cells. Nature of the experiment: In vitro proliferation of B16a tumor cells. Type of experiment: cell-based, mouse. Conditions: for effect on tumor cell proliferation (in words): B16a cells, 10-40 micrograms/ml, five day assay. The procedure:
Proliferation studies were designed to measure the effects of BAY e 9736 on the proliferation of B16 a tumor cells. B16a tumor cells were plated into T-25 flasks (4×10^4 cells/flask) and allowed to grow at 37° C. for 16 hours. The media was removed from the flasks and plating efficiency was determined using a Coulter counter. Replacement media was added to the flasks, which were allowed to incubate for 24 hours. After the 24 hour incubation, 10 microliters of control (media), DMSO, or BAY e 9736 in DMSO (40 mg/ml stock) was added to the flasks. Media replacement with and without BAY e 9736 were performed every 24 hours for 4 consecutive days. Control flasks (3) were terminated every day of the proliferation study with 4 terminated on the final day.
A 40 mg aliquot of BAY e 9736 was dissolved in 1 milliliter dimethyl sulfoxide (DMSO). Aliquots of this 40 mg/ml stock were diluted with DMSO to final concentrations of 20 and 10 mg/ml. At day two and each successive day, 10 microliter aliquots of 40, 20, and 10 mg/ml BAY e 9736 were added once a day to the new media of flasks containing proliferating B16a tumor cells as previously described.

The test system of another experiment is Platelet. Put plainly: Tumor cell (B16a) induced platelet aggregation (TCIPA). The note with it: for effect on tumor cell induced platelet aggregation (in words): 400 micrograms/ml to 0.4 micrograms/ml. Type of experiment: cell-based, human. The procedure:
Blood (45 ml) was drawn from the […] vein of healthy, fasted, aspirin free (at least two weeks) human volunteers into a plastic syringe containing 5 ml of 4.8% dextrose with 50 U/ml heparin buffered by 25 mM HEPES, pH 7.5. An 18 gauge needle was used to prevent hemolysis. The heparinized blood was gently mixed by inverting the syringe five times and then the blood was transfused into two 40 ml plastic centrifuge tubes and centrifuged for 10 min at 163×g. The resulting platelet rich plasma (PRP; the supernatant fraction) was decanted using an adjustable SMI pipette set at 6 ml. Platelet poor plasma (PPP) was prepared by centrifugation of PRP for 10 min at 1086×g. Platelet poor plasma was used to standardize the platelet concentration in PRP to 3×10^8 /ml. Platelet concentrations were determined using a Coulter Model ZBI cell counter.
Platelet aggregation was measured photometrically using a Sienco Model DP-247E dual channel aggregometer and recorded on a Sienco Model B-5000 dual channel recorder. Aliquots of PRP (250 microliters at 3×10^8 platelets/ml) were transferred into aggregometry cuvettes and stirred at a constant speed of 800 RPM at 37° C. Platelet aggregation studies were designed and run as individually controlled samples. BAY e 9736 was dissolved in either PEG-400 or […] (DMSO).
BAY e 9736 in PEG-400 alone was aliquoted into the cuvettes prior to the addition of the PRP. Immediately after the addition of the PRP, the cuvettes were placed into the aggregometer. After two minutes (to allow for the stabilization of the platelet preparation and mixing of the BAY e 9736), ADP or tumor cells were added in 20 microliter aliquots to induce platelet aggregation.
A 20 milligram sample of BAY e 9736 was dissolved in 1 ml of polyethylene glycol (PEG-400) and serially diluted with PEG-400 to 2, 0.2 and 0.02 mg/ml concentrations using PEG-400. Tumor cell induced platelet aggregation (TCIPA) studies were performed as described previously. The effect of BAY e 9736 on TCIPA was determined by the mixing of 2 or 5 microliter aliquots of 20, 2, 0.2 or 0.02 mg/ml BAY e 9736 and the platelet rich plasma (PRP) for approximately 3 minutes prior to the addition of tumor cells.

In general, inhibition refers to the change of the read-out against control, counted positive when it falls. Read a high inhibition as strong suppression. `COCCOC(=O)C1=C(C)NC(C)=C(C(=O)OC(C)C)C1c1cccc([N+](=O)[O-])c1` (stereo not drawn) [BAY e 9736, 1,4-dihydro-2,6-dimethyl-4-(3' nitrophenyl)-pyridine-3-(beta-methyoxyethylester)-5-(isopropyl ester)]: the “% of Control (mean number of pulmonary metastases)” value in the experiment with B16a Tumor Cells [1] (0.1 mg/kg) is 68 ± 14%; in the experiment with B16a Tumor Cells [1] (1.0 mg/kg) it was 45 ± 9%; in the experiment on B16a Tumor Cells [1] (2.5 mg/kg) it was 33 ± 22%; in the experiment on B16a Tumor Cells [1] (10.0 mg/kg), 28 ± 7%; in the experiment on B16a Tumor Cells [1] (80.0 mg/kg) it was 19 ± 6%. Besides, the figures for the “reduction of spontaneous metastasis (in words)” value in the experiment with B16a Tumor Cells [1] and in the experiment with B16a Tumor Cells [1] (listed as nimodipine) were “effective in decreasing the number of spontaneous metastasis as compared to the control mice” and “significantly reduce spontaneous metastasis”, respectively. Further, the “effect on tumor cell proliferation (in words)” value with B16a Tumor Cells [2] was “inhibits tumor cell proliferation”; in the experiment with B16a Tumor Cells [2] (listed as nimodipine), “decreases the rate of tumor cell growth over a five day assay period”. The activity at 10 µg/mL in the experiment on B16a Tumor Cells [2] (Mus musculus, .01 mg/ml, drug readded once daily, x ± SEM, n = 4, read-out: % of Control Tumor Cell Number) is 50 ± 5%. Besides, the activity at 20 µg/mL in the experiment with B16a Tumor Cells [2] (Mus musculus, .02 mg/ml, drug readded once daily, x ± SEM, n = 4, read-out: % of Control Tumor Cell Number) was 25 ± 5%. In the experiment with B16a Tumor Cells [2] (Mus musculus, .04 mg/ml, drug readded once daily, x ± SEM, n = 4, read-out: % of Control Tumor Cell Number), the activity at 40 µg/mL amounted to 14 ± 3%. Moreover, the “% Inhibition of Tumor Cell Induced Platelet Aggregation” value in the experiment on Platelet (0.00015 mg/ml final) is listed as “No effect”; in the experiment on Platelet (0.004 mg/ml final (second line so printed, below 0.0015)), “No effect”. The “effect on tumor cell induced platelet aggregation (in words)” value in the experiment with Platelet is given as “does inhibit TCIPA”; in the experiment with Platelet (listed as nimodipine), “greatly inhibit platelet aggregation induced by tumor cells”. Besides, at 1.5 µg/mL the inhibition with Platelet (Homo sapiens, Platelet, 0.0015 mg/ml final, x ± SEM, n = 3) was 12 ± 4.1%. In the experiment on Platelet (Homo sapiens, Platelet, 0.004 mg/ml final, x ± SEM, n = 3), at 4 µg/mL the inhibition was 19 ± 5.9%. Moreover, the inhibition at 15 µg/mL in the experiment on Platelet (Homo sapiens, Platelet, 0.015 mg/ml final, x ± SEM, n = 3) is 32 ± 3.5%. The molecule further returned an inhibition at 40 µg/mL in the experiment on Platelet (Homo sapiens, Platelet, 0.04 mg/ml final, x ± SEM, n = 3) of 55 ± 7.7%. Further, the inhibition at 150 µg/mL with Platelet (Homo sapiens, Platelet, 0.15 mg/ml final, x ± SEM, n = 3) worked out at 67 ± 8.5%. The same molecule yielded an inhibition at 400 µg/mL with Platelet (Homo sapiens, Platelet, 0.4 mg/ml final, x ± SEM, n = 3) of 85 ± 9.6%. Moreover, the “effect on platelet aggregation, dissolved in PEG-400 vs DMSO” value with Platelet (preliminary aggregometry studies) is given as “no statistically significant differences”.
